Test results reported in US10000471B2, “Pyrazole P38 map kinase inhibitors” (Respivert Limited, priority 2010, dated 2018).
pEC50, pIC50: −log10 of the molar value. Blank lines part the entries; values can stand above or below the compound they belong to.

Experiments:
[1] = system: TNFα release in THP-1 cells; test: LPS-induced TNFα release in THP-1 cells; format: cell-based, human; conditions: Homo sapiens
Method in brief: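 Human monocytic THP-1 cells stimulated with 3 μg/mL E. coli LPS for 4 hr; supernatant TNFα measured by sandwich ELISA. Inhibition at each concentration versus vehicle control, IC50 from concentration-response curve.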

[2] = system: IL-8 release in d-U937 cells; test: LPS-induced IL-8 release in d-U937 cells; format: cell-based, human; conditions: Homo sapiens, dU937
Method in brief: (§1)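 PMA-differentiated (100 ng/ml, 48–72 hr) U937 macrophage-type cells pre-incubated 2 hr with compound, then stimulated 4 hr with 0.1 μg/mL E. coli O111:B4 LPS; supernatant TNFα and IL-8 measured by sandwich ELISA. TNFα inhibition expressed relative to 10 μg/mL BIRB796, giving REC50; IL-8 inhibition versus vehicle, giving IC50.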

A/J mice = test: Cigarette smoke model; format: in vivo; conditions: for inhibition of both macrophage and neutrophil accumulation into the BALF: animals previously exposed to cigarette smoke; for Cell numbers in BAL (% Inhibition), Macrophages / Cell numbers in BAL (% Inhibition), Neutrophils / Cell numbers in BAL, Macrophages / Cell numbers in BAL, Neutrophils: Table 8
Method: A/J mice (males, 5 weeks old) were exposed to cigarette smoke (4% cigarette smoke, diluted with air) for 30 min/day for 11 days using a Tobacco Smoke Inhalation Experiment System for small animals (Model SIS-CS; Sibata Scientific Technology, Tokyo, Japan). Test substances were administered intra-nasally (35 μL of solution in 50% DMSO/PBS) twice daily for 3 days after the final cigarette smoke exposure. At 12 hr after the last dosing, each of the animals was anesthetized, the trachea cannulated and bronchoalveolar lavage fluid (BALF) was collected. The numbers of alveolar macrophages and neutrophils were determined by FACS analysis (EPICS® ALTRA II, Beckman Coulter, Inc., Fullerton, Calif., USA) using anti-mouse MOMA2 antibody (macrophage) or anti-mouse 7/4 antibody (neutrophil).
The data for cell numbers are shown as the mean±SEM.

Balb/c mice = test: LPS-induced neutrophil accumulation in mice; format: in vivo; conditions: for Neutrophil numbers in BAL / Neutrophil numbers in BAL (% inhibition): intra tracheal
Method: LPS-Induced Neutrophil Accumulation in Mice
Non-fasted Balb/c mice were dosed by the intra tracheal route with either vehicle, or the test substance at the indicated times (within the range 2-8 hr) before stimulation of the inflammatory response by application of an LPS challenge. At T=0, mice were placed into an exposure chamber and exposed to LPS. After a further 8 hr the animals were anesthetized, their tracheas cannulated and BALF extracted by infusing and then withdrawing from their lungs 1.0 mL of PBS via the tracheal catheter. Total and differential white cell counts in the BALF samples were measured using a Neubaur haemocytometer. Cytospin smears of the BALF samples were prepared by centrifugation at 200 rpm for 5 min at RT and stained using a DiffQuik stain system (Dade Behring). Cells were counted using oil immersion microscopy.

[3] = system: Differentiated U937 cells; test: Cell viability MTT assay; format: cell-based, human; conditions: negative = apparent increase in viability; for MTT Assay (Viability) 4 h d-U937, percentage loss of cell viability: 4 hr in 5% FCS; for MTT Assay (Viability) 24 h d-U937, percentage loss of cell viability: 24 h in 10% FCS
Method in brief: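 Differentiated U937 cells pre-incubated with compound either 4 hr in 5% FCS or 24 h in 10% FCS, then 1 hr MTT. Formazan dissolved in DMSO, absorbance at 550 nm. Percentage viability loss relative to 0.5% DMSO vehicle; apparent increases appear as negative percentages.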

[4] = molecular target: T1, p38 MAPKα isoform (MAPK14) (Homo sapiens, UniProt Q16539); test: Enzyme inhibition assay (FRET, Z-LYTE), p38 MAPKα via MAPKAP-K2 activation; format: biochemical; conditions: read-out: Enzyme Inhibition IC50 p38α
T1 construct: purchased Invitrogen
T1 sequence (Q16539 whole entry, canonical isoform): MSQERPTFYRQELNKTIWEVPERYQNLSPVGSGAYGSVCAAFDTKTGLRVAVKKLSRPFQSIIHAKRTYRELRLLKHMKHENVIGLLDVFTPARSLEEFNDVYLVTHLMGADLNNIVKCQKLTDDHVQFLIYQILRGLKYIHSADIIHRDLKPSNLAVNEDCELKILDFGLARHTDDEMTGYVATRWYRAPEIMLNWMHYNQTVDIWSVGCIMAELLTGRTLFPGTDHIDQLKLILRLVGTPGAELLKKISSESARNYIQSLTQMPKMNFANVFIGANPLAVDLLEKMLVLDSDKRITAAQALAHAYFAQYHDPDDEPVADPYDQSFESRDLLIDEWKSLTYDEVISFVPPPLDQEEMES
Method in brief: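 Recombinant p38 MAPKα was preincubated with compound for 2 h at RT. Its activity was measured indirectly through activation/phosphorylation of downstream MAPKAP-K2, with a Z-LYTE FRET peptide read-out (coumarin/fluorescein ratio) after a 1 h development step. IC50 came from concentration-response curves of percent inhibition versus an uninhibited control.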

[5] = system: TNFα release in d-U937 cells; test: LPS-induced TNFα release in d-U937 cells; format: cell-based, human; conditions: Homo sapiens, dU937, relative to 10 μg/mL BIRB796, read-out: LPS/TNFα REC50 d-U937
Method in brief: as §1

[6] = Cigarette smoke + 0.064 μg/mL, intra-nasal twice daily 3 days
[7] = Table 7, Cigarette smoke + 8.0 μg/mL
[8] = Table 7, Cigarette smoke + 40 μg/mL
[9] = Table 7, Cigarette smoke + 200 μg/mL
[10] = Table 6, 0.2 mg/mL, 8 h pre-dose

pIC50 [1]: 9.00 | pIC50 [2]: 9.10 | pIC50 [4]: 7.72 | pEC50 [5]: 9.70
Structure (SMILES): CNC(=O)Nc1cc(Oc2ccc(NC(=O)Nc3cc(C(C)(C)C)nn3-c3ccc(OC)cc3)c(Cl)c2Cl)ccn1 [Example 9, N-Methyl-N′-4-(4-(3-(3-tert-butyl-1-p-anisyl-1H-pyrazol-5-yl)ureido)-2,3-dichlorophen-1-yloxy)pyridin-2-ylurea]
Cell numbers in BAL (% Inhibition), Macrophage (A/J mice; [6]): 19% | Cell numbers in BAL (% Inhibition), Neutrophil (A/J mice; [6]): 3% | Cell numbers in BAL, Macrophage (A/J mice; [6]): 16.2 ± 1.7 × 10^4/mL | Cell numbers in BAL, Neutrophil (A/J mice; [6]): 17.7 ± 2.5 × 10^4/mL | Cell numbers in BAL (% Inhibition), Macrophage (A/J mice; Cigarette smoke + 0.32 μg/mL): 17% | Cell numbers in BAL (% Inhibition), Neutrophil (A/J mice; Cigarette smoke + 0.32 μg/mL): 16% | Cell numbers in BAL, Macrophage (A/J mice; Cigarette smoke + 0.32 μg/mL): 16.5 ± 2.4 × 10^4/mL | Cell numbers in BAL, Neutrophil (A/J mice; Cigarette smoke + 0.32 μg/mL): 15.5 ± 0.47 × 10^4/mL | Cell numbers in BAL (% Inhibition), Macrophage (A/J mice; Cigarette smoke + 1.6 μg/mL): 19% | Cell numbers in BAL (% Inhibition), Neutrophil (A/J mice; Cigarette smoke + 1.6 μg/mL): 21% | Cell numbers in BAL, Macrophage (A/J mice; Cigarette smoke + 1.6 μg/mL): 16.2 ± 1.3 × 10^4/mL | Cell numbers in BAL, Neutrophil (A/J mice; Cigarette smoke + 1.6 μg/mL): 14.7 ± 1.6 × 10^4/mL | Cell numbers in BAL (% Inhibition), Macrophage (A/J mice; [7]): 39% | Cell numbers in BAL (% Inhibition), Neutrophil (A/J mice; [7]): 29% | Cell numbers in BAL, Macrophage (A/J mice; [7]): 13.1 ± 1.2 × 10^4/mL | Cell numbers in BAL, Neutrophil (A/J mice; [7]): 13.4 ± 1.4 × 10^4/mL | Cell numbers in BAL (% Inhibition), Macrophage (A/J mice; [8]): 61% | Cell numbers in BAL (% Inhibition), Neutrophil (A/J mice; [8]): 42% | Cell numbers in BAL, Macrophage (A/J mice; [8]): 9.9 ± 1.6 × 10^4/mL | Cell numbers in BAL, Neutrophil (A/J mice; [8]): 11.2 ± 2.1 × 10^4/mL | Cell numbers in BAL (% Inhibition), Macrophage (A/J mice; [9]): 85% | Cell numbers in BAL (% Inhibition), Neutrophil (A/J mice; [9]): 72% | Cell numbers in BAL, Macrophage (A/J mice; [9]): 6.1 ± 0.93 × 10^4/mL | Cell numbers in BAL, Neutrophil (A/J mice; [9]): 6.3 ± 0.79 × 10^4/mL | inhibition of both macrophage and neutrophil accumulation into the BALF (A/J mice): dose-dependent inhibition | Neutrophil numbers in BAL (Balb/c mice; 0.05 mg/mL, 2 hr pre-dose): 14.98 ± 2.25 × 10^5/mL | Neutrophil numbers in BAL (% inhibition) (Balb/c mice; 0.05 mg/mL, 2 hr pre-dose): 11% | Neutrophil numbers in BAL (Balb/c mice; 0.2 mg/mL, 2 hr pre-dose): 8.75 ± 1.38 × 10^5/mL | Neutrophil numbers in BAL (% inhibition) (Balb/c mice; 0.2 mg/mL, 2 hr pre-dose): 48% | Neutrophil numbers in BAL (Balb/c mice; 0.2 mg/mL, 8 h pre-dose): 13.44 ± 2.03 × 10^5/mL | Neutrophil numbers in BAL (% inhibition) (Balb/c mice; 0.2 mg/mL, 8 h pre-dose): 20% | Neutrophil numbers in BAL (Balb/c mice; 1.0 mg/mL, 2 hr pre-dose): 5.80 ± 1.18 × 10^5/mL | Neutrophil numbers in BAL (% inhibition) (Balb/c mice; 1.0 mg/mL, 2 hr pre-dose): 66% | inhibition of neutrophil accumulation into the BALF (Balb/c mice; administered 2 hr prior to LPS challenge): dose-dependent inhibition | effects of treatment on neutrophil accumulation into the BALF (Balb/c mice; dosed 8 hr prior to the endotoxin challenge): sustained and still detectable | MTT Assay (Viability) 4 h d-U937, percentage loss of cell viability [3]: −26.8% | MTT Assay (Viability) 24 h d-U937, percentage loss of cell viability [3]: 65.3%

pIC50 [1]: 9.22 | pIC50 [2]: 9.10 | pIC50 [4]: 7.68 | pEC50 [5]: 9.05
Structure (SMILES): COc1ccc(-n2nc(C(C)(C)C)cc2NC(=O)Nc2ccc(Oc3ccnc(NC(=O)N4CCCC4)c3)c(Cl)c2Cl)cc1 [Example 76, N-(4-(4-(3-(3-(tert-butyl)-1-(4-methoxyphenyl)-1H-pyrazol-5-yl)ureido)-2,3-dichlorophenoxy)pyridin-2-yl)pyrrolidine-1-carboxamide]
Cell numbers in BAL (% Inhibition), Macrophages (A/J mice; Cigarette smoke + 8.0 μg/mL): 57% | Cell numbers in BAL (% Inhibition), Neutrophils (A/J mice; Cigarette smoke + 8.0 μg/mL): 52% | Cell numbers in BAL, Macrophages (A/J mice; Cigarette smoke + 8.0 μg/mL): 8.5 ± 0.35 × 10^4/mL | Cell numbers in BAL, Neutrophils (A/J mice; Cigarette smoke + 8.0 μg/mL): 9.6 ± 0.48 × 10^4/mL | Cell numbers in BAL (% Inhibition), Macrophages (A/J mice; Cigarette smoke + 40 μg/mL): 84% | Cell numbers in BAL (% Inhibition), Neutrophils (A/J mice; Cigarette smoke + 40 μg/mL): 66% | Cell numbers in BAL, Macrophages (A/J mice; Cigarette smoke + 40 μg/mL): 5.3 ± 0.36 × 10^4/mL | Cell numbers in BAL, Neutrophils (A/J mice; Cigarette smoke + 40 μg/mL): 7.4 ± 0.76 × 10^4/mL | Cell numbers in BAL (% Inhibition), Macrophages (A/J mice; Cigarette smoke + 200 μg/mL): 97% | Cell numbers in BAL (% Inhibition), Neutrophils (A/J mice; Cigarette smoke + 200 μg/mL): 86% | Cell numbers in BAL, Macrophages (A/J mice; Cigarette smoke + 200 μg/mL): 3.6 ± 0.39 × 10^4/mL | Cell numbers in BAL, Neutrophils (A/J mice; Cigarette smoke + 200 μg/mL): 4.0 ± 0.49 × 10^4/mL | inhibition of both macrophage and neutrophil accumulation into the BALF (A/J mice): dose-dependent inhibition | % inhibition of Influx (Balb/c mice; [10]): 8% | Neutrophil numbers in BAL 8 h pre-dose (Balb/c mice; [10]): 12.94 ± 2.41 × 10^5/mL | inhibitory effects versus neutrophil influx into the BALF (Balb/c mice; dosed 8 hr before the inflammatory stimulus): inhibitory effects | MTT Assay (Viability) 4 h d-U937, percentage loss of cell viability [3]: −25.5% | MTT Assay (Viability) 24 h d-U937, percentage loss of cell viability [3]: 27.2%
